Assay results from ChEMBL document CHEMBL4118149, “1,2,4-Triazolsulfone: A novel isosteric replacement of acylsulfonamides in the context of NaV1.7 inhibition” (Bioorg Med Chem Lett, 2018).

How the values were obtained:
[1] = Dissociation constant, pKa of the compound by capillary electrophoresis method; assay type: physicochemical
[2] = Volume of distribution at steady state in Sprague-Dawley rat at 0.5 mg/kg, iv; assay type: ADME, organism-based; conditions: in vivo, read-out: Vdss
[3] = Oral bioavailability in Sprague-Dawley rat at 10 mg/kg; assay type: ADME, organism-based; conditions: in vivo
[4] = Kinetic solubility of the compound in simulated intestinal fluid; assay type: physicochemical; conditions: simulated gi fluid

pKa [1]	Compound	other results
3.4	O=C(O)CNC(=O)c1cc(F)c(COc2ccc(Cl)c(Cl)c2)cc1F	
3.1	O=C(O)c1cc(F)c(COc2ccc(Cl)c(Cl)c2)cc1F	
3.1	CS(=O)(=O)NC(=O)c1cc(F)c(COc2ccc(Cl)c(Cl)c2)cc1F	

Second part, the compound before the results:

Compound	pKa [1]	other results
CC(C)COc1ncc(-c2cc(F)c(-c3nnc(S(=O)(=O)C4CCC4)[nH]3)cc2F)cc1Cl		Vd [2]: 0.7 L/kg
CS(=O)(=O)c1nnc(-c2cc(F)c(COc3ccc(Cl)c(Cl)c3)cc2F)[nH]1	4.8	
CC(=O)NS(=O)(=O)c1cc(F)c(COc2ccc(Cl)c(Cl)c2)cc1F	3.7	
O=c1[nH]c(-c2cc(F)c(COc3ccc(Cl)c(Cl)c3)cc2F)no1	4.3	
O=S(=O)(CC1CC1)c1nnc(-c2cc(F)c(-c3cnc(Oc4ccccc4C(F)(F)F)c(Cl)c3)cc2F)[nH]1		Vd [2]: 0.37 L/kg; bioavailability [3]: 140%; Kinetic solubility [4]: 101 µM
